These results are taken from ChEMBL document CHEMBL5303304, “EUbOPEN Chemogenomics Library - IncuCyte” (2023).

Holding throughout (format): toxicity, cell-based
For one data set, the system named is Fibroblast. The data set is described as follows: Incucyte cell viability with human fibroblast. Conditions: 10 µM, compound concentration 10 uM.
A further data set deals with HEK-293T. The experiment in a line: Incucyte cell viability with HEK293T. To be noted: human, 10 µM, compound concentration 10 uM.
Another data set concerns U2OS. The experiment in a line: Incucyte cell viability with U2OS. Conditions: human, 10 µM, compound concentration 10 uM.
Also: unitless GR value; below 1 slowed growth and below 0 cell loss.

Consider `C=CC(=O)Nc1ccc2[nH]c(=O)n(C3CCN(Cc4ccc(-c5ccc6c(c5)NC(=O)CO6)cc4)CC3)c2c1` [RL2578], for which the “Growth Rate” value in the data set with Fibroblast (0 h, replicate number 1) is -1; with Fibroblast (6 h, replicate number 1), 0.84; with Fibroblast (6 h, replicate number 2), 0.95; in the data set with Fibroblast (12 h, replicate number 1), 0.87; in the data set on Fibroblast (12 h, replicate number 2), 0.71; with Fibroblast (18 h, replicate number 1), 0.72. The “Growth Rate” value was 0.52 in the data set with Fibroblast (18 h, replicate number 2); 0.45 with Fibroblast (24 h, replicate number 1); 0.51 with Fibroblast (24 h, replicate number 2); 0.24 in the data set with HEK-293T (6 h, replicate number 1); 0.23 in the data set with HEK-293T (6 h, replicate number 2); 0.24 in the data set on HEK-293T (12 h, replicate number 1). The “Growth Rate” value in the data set on HEK-293T (12 h, replicate number 2) was found to be 0.43; in the data set on HEK-293T (18 h, replicate number 1) it was 0.28; in the data set on HEK-293T (18 h, replicate number 2), 0.45; in the data set with HEK-293T (24 h, replicate number 1) it was 0.26; with HEK-293T (24 h, replicate number 2) it was 0.42; in the data set with U2OS (0 h, replicate number 1) it was 0.69. Further, the “Growth Rate” value with U2OS (6 h, replicate number 1) is recorded as 0.83; with U2OS (12 h, replicate number 1), 0.76; in the data set on U2OS (12 h, replicate number 2), 0.91; in the data set on U2OS (18 h, replicate number 1), 0.75; in the data set with U2OS (18 h, replicate number 2), 0.78; in the data set with U2OS (24 h, replicate number 1), 0.93. In addition, in the data set on U2OS (24 h, replicate number 2), the “Growth Rate” value was found to be 0.62.
For the compound `CCN1C(=O)N(c2c(F)c(OC)cc(OC)c2F)Cc2cnc3[nH]c(CN4CCOCC4)cc3c21` [PEMIGATINIB], the “Growth Rate” value is 0.11 with Fibroblast (0 h, replicate number 2); 0.04 with Fibroblast (6 h, replicate number 1); 0.12 with Fibroblast (6 h, replicate number 2); 0.42 in the data set on Fibroblast (12 h, replicate number 1); 0.45 with Fibroblast (12 h, replicate number 2); 0.23 with Fibroblast (18 h, replicate number 1). Also, the “Growth Rate” value is reported as 0.53 with Fibroblast (18 h, replicate number 2); 0.19 in the data set on Fibroblast (24 h, replicate number 1); 0.49 in the data set with Fibroblast (24 h, replicate number 2); 0 with HEK-293T (0 h, replicate number 1); 0.25 in the data set with HEK-293T (6 h, replicate number 2); 0.76 in the data set on HEK-293T (12 h, replicate number 1). In addition, the “Growth Rate” value in the data set with HEK-293T (12 h, replicate number 2) was 0.59; with HEK-293T (18 h, replicate number 1) it was 0.68; in the data set on HEK-293T (18 h, replicate number 2) it was 0.33; in the data set on HEK-293T (24 h, replicate number 1), 0.57; in the data set with HEK-293T (24 h, replicate number 2), 0.3; in the data set with U2OS (0 h, replicate number 1), -0.31. Besides, the “Growth Rate” value in the data set on U2OS (0 h, replicate number 2) is on record as -0.02; in the data set with U2OS (6 h, replicate number 1) it was 0.58; in the data set with U2OS (6 h, replicate number 2), -0.01; in the data set with U2OS (12 h, replicate number 1) it was -0.36; with U2OS (12 h, replicate number 2), 0.07; in the data set with U2OS (18 h, replicate number 1), 0.5. Also, the “Growth Rate” value was determined as 0.2 in the data set with U2OS (18 h, replicate number 2); 0.62 in the data set with U2OS (24 h, replicate number 1); 0.19 in the data set on U2OS (24 h, replicate number 2).
Turning to `COc1ccc(CCCN2CCC(COC(c3ccccc3)c3ccccc3)CC2)cc1.Cl`, the “Growth Rate” value is reported as -1 in the data set on Fibroblast (6 h, replicate number 2); -0.98 in the data set with Fibroblast (12 h, replicate number 1); -0.74 in the data set on Fibroblast (12 h, replicate number 2); -0.16 with Fibroblast (18 h, replicate number 1); -0.39 in the data set with Fibroblast (18 h, replicate number 2); 0.17 with Fibroblast (24 h, replicate number 1). For the same compound, the “Growth Rate” value is on record as -0.23 in the data set on Fibroblast (24 h, replicate number 2); -0.53 in the data set on HEK-293T (6 h, replicate number 1); -0.09 in the data set with HEK-293T (6 h, replicate number 2); -0.23 with HEK-293T (12 h, replicate number 1); 0.28 in the data set on HEK-293T (12 h, replicate number 2); -0.02 with HEK-293T (18 h, replicate number 1). Besides, the “Growth Rate” value is given as 0.26 in the data set with HEK-293T (18 h, replicate number 2); 0.24 in the data set on HEK-293T (24 h, replicate number 1); 0.31 in the data set with HEK-293T (24 h, replicate number 2); 0.33 with U2OS (0 h, replicate number 1).
